target: T1, panel of 442 kinases (Homo sapiens, UniProt Q8IYT8); format: binding; conditions: kinase ULK2; compound concentration 10 µM
T1 construct: purchased KINOMEscan
T1 sequence (Q8IYT8 1-1036): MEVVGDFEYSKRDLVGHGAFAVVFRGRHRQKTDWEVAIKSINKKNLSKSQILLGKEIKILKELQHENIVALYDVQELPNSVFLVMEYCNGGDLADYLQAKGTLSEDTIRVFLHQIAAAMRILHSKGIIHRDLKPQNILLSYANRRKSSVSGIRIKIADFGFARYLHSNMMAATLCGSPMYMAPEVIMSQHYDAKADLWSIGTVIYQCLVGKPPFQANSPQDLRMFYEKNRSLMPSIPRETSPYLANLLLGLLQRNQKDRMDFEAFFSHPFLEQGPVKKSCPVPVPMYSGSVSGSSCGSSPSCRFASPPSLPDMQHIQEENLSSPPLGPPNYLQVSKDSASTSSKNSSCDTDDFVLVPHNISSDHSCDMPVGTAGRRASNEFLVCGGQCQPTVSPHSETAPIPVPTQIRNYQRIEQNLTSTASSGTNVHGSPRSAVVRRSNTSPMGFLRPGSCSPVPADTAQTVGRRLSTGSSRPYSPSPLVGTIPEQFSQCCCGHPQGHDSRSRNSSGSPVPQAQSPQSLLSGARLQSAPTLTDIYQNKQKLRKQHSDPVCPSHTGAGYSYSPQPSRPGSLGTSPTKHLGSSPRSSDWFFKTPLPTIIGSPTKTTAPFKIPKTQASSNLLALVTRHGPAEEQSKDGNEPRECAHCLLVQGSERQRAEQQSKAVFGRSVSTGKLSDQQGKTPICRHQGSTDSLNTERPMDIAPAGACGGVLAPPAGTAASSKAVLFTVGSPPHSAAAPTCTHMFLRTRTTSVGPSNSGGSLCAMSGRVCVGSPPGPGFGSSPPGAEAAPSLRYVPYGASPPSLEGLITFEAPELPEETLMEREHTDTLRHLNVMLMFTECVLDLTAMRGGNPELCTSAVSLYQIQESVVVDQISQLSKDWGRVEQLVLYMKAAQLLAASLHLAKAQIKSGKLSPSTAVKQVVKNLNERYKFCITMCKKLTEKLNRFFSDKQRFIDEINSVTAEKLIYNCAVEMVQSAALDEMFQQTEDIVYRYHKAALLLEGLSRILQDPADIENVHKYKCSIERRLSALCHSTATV
Text: We assessed the selectivity of members of this scaffold using the KINOMEscan methodology across a near comprehensive panel of 442 kinases [[18,27]].

SMILES | % Ctrl, ULK2
CCOc1cc(C(=O)N2CCC(N3CCN(C)CC3)CC2)ccc1Nc1ncc2c(n1)N(C1CCCC1)c1ccccc1C(=O)N2C [Compound 26] | 98 % Ctrl
COc1cc(C(=O)N2CCC(N3CCN(C)CC3)CC2)ccc1Nc1ncc2c(n1)N1CCc3cccc(c31)C(=O)N2C [Compound 24] | 96 % Ctrl
COc1cc(C(=O)N2CCC(N3CCN(C)CC3)CC2)ccc1Nc1ncc2c(n1)N(C)c1ccccc1C(=O)N2C [15 (LRRK2-IN-1)] | 67 % Ctrl
COc1cc(C(=O)N2CCC(N3CCN(C)CC3)CC2)ccc1Nc1ncc2c(n1)N(C1CCCC1)c1ccccc1C(=O)N2C [Compound 25, 11-cyclopentyl-2-((2-methoxy-4-(4-(4-methylpiperazin-1-yl)piperidine-1-carbonyl)phenyl)amino)-5-methyl-5H-benzo[e]pyrimido[5,4-b][1,4]diazepin-6(11H)-one] | 75 % Ctrl

Reference: publication PMC3914206
